From US4426378A, “Thyrotropin releasing hormone in therapy of shock and as a central nervous system stimulant” (The United States of America as represented by the …, priority 1981, dated 1984)

Experiments:
[1] = test system: control rats not subjected to shock; experiment: Cardiovascular effects of i.v. TRH in control rats not subjected to shock; format: in vivo, male Sprague-Dawley rats; conditions: TRH 2 mg/kg i.v.
Source text: (§1) Tail-artery and external-jugular vein cannulae were implanted in male Sprague-Dawley rats (250-300 g; Zivic-Miller Labs) according to standard surgical techniques. Twenty-four hours later, the arterial cannula were connected to a microtransducer (Narco Biosystems, RP 1500 attached to a Beckman physiograph, type R). This arrangement permitted continuous measurement of blood pressure and heart rate in awake, freely moving rats in their home cages.
In control rats which were not subjected to shock, the cardiovascular effects of intravenous (i.v.) TRH alone were determined. A dose of 2 mg/kg body weight TRH (Beckman Labs) was injected, followed by a cannula flush (0.2 ml saline) to ensure complete drug delivery. Cardiovascular parameters were monitored for two hours. TRH administration caused a significant increase in mean arterial pressure (MAP) of 11.1±1.5 mm Hg (n-10, Student's t=7.25, p 0.001), with peak effects observed at 5-minute post-injection and persisting for 30 minutes (FIG. 1).

rats [2] = experiment: Behavioral effects of intravenous TRH (CNS stimulant); format: in vivo
Method: (§2) Follow-up studies were performed to evaluate other physiological parameters, TRH dose-response characteristics, and the effect of TRH on endotoxic shock survival in the rat. The experiments were conducted identically as described above in Experiment No. 1 for initial endotoxic shock studies, except heart rate, pulse pressure, respiration rate, and behavioral measures were examined following treatment with intravenous saline or TRH (0.2, 0.63, 2.0, 6.34, or 20.0 mg per kilogram body weight). Survival at 2 hours post drug treatment was also assessed. […] Pressure fell from 98.0±1.3(SE) millimeters of mercury (mm Hg) to 70.7±1.6 (SE) mm Hg, student's t=13.3, p 0.001.
In addition to its effects upon physiological parameters, intravenous TRH also produced a variety of behavioral effects indicative of its action as a CNS stimulant.

rats [3] = experiment: Escape from enclosure with heated floor (53° C.); format: in vivo
Method: (§3) To confirm the lack of effect of TRH upon analgesic responses, an additional group of rats was equipped with intravenous cannulae only. One day later, rats were divided into 3 groups (n=6/group). Group one received TRH alone (2.0 mg/kg--a dose with therapeutic effects in shock), group two received morphine sulfate (4 mg per kg) followed by TRH (2.0 mg per kg), and group three got morphine sulfate alone (4.0 mg per kg). Pain latencies were determined by applying a thermal stimulus to the tail, tail-flick procedure, FIG. 4a, and by measuring how long required for a rat to escape from an enclosure with a heated floor (53° C.), FIG. 4b.

[4] = test system: rats subjected to endotoxic shock; experiment: Endotoxic shock (E. coli lipopolysaccharide endotoxin i.v.), Experiment No. 1; format: in vivo, male Sprague-Dawley rats; conditions: TRH 2 mg/kg i.v.
Source text: as §1
A second group of rats was subjected to endotoxic vasogenic, septic) shock by the i.v. administration of Escherichia coli lipopolysaccharide endotoxin (15 mg/kg; Difco, control #654109). In these animals, MAP fell to 67-70 mm Hg, which was approximately 26% (24 mm Hg) below baseline levels of 92.7±1.9 mm Hg (n=22). These rats, randomly divided into two groups, were treated with either i.v. TRH (2 mg/kg, n=13) or an equal volume of i.v. saline (1.0 ml/kg, n=11), followed by a 0.2 ml cannula flush.

rats [5] = experiment: Tail-flick procedure (thermal stimulus to the tail); format: in vivo; conditions: n=6
Method: as §3

[6] = test system: rats subjected to hemorrhagic shock; experiment: Hemorrhagic shock, Experiment No. 3; format: in vivo; conditions: TRH 2 mg/kg i.v.
Method: Another group of rats was subjected to hemorrhagic shock according to our previous experimental design. In a total of 27 rats, blood was withdrawn from the indwelling external jugular vein cannula; MAP fell from 96.5±1.6 mm Hg to 37.2±1.0 mm Hg where it was maintained for 20 minutes. A total of […] (body weight) of blood was removed, a volume approximating 45% of estimated total blood volume. Following the 20 minutes of controlled oligemia, animals were treated with either i.v. TRH (2 mg/kg, m=15) or an equal volume of i.v. saline (1.0 ml/kg, n=12) followed by a 0.2 ml cannula flush. Shed blood was not returned. […] The duration of this effect was about 30 minutes, approximately equivalent to the duration of the pressor response to TRH in normotensive rats not subjected to shock, FIG. 3a. In this model, saline-treated rats also experienced an increase in MAP, a consequence of the fluid volume infused.

[7] = test system: rats subjected to endotoxic shock; experiment: Endotoxic shock follow-up: dose-response, cardiorespiratory variables and survival, Experiment No. 2; format: in vivo, rat; conditions: for pulse pressure / change in mean arterial pressure / respiratory rate / heart rate: 15 min following treatment; for survival, alive/dead: 2 hrs following treatment (saline 4/4)
Method: as §2
When saline-control rat mortality was compared to mortality in all TRH-treated animals over the 2 hour measurement interval, there was a significant decrease in the lethal effects of endotoxemia produced by a single injection of this substance (Fisher exact probability, p=0.01).

## NC(=O)[C@@H]1CCCN1C(=O)[C@H](Cc1c[nH]cn1)NC(=O)[C@@H]1CCC(=O)N1 [TRH, L-pyroglutamyl-L-histidyl-L-proline amide]
[1]; control rats
  persistence of MAP increase: 30 min
  time of peak effect on MAP post-injection: 5 min
[1]; normotensive control rats, n=10
  increase in mean arterial pressure (MAP): 11.1±1.5 mm Hg
Rats [2]; intravenous TRH
  lowest dose at which wet-dog shaking behavior was observed: 0.63 mg per kg
Rats [2]; intravenous TRH 6.34 or 20.0 mg per kg body weight
  tail-rattling, oral "chewing" stereotypies, and piloerection: frequently observed
Rats [3]; TRH alone 2.0 mg/kg i.v., n=6, 53° C.
  pain latency, escape from heated floor: no effect
Rats [3]; morphine sulfate 4 mg per kg followed by TRH 2.0 mg per kg, n=6
  effect on morphine-induced analgesia, escape from heated floor: did not alter the intensity or duration of morphine-induced analgesia
[4]; n=13, average during first 30 minutes post-treatment, endotoxin 15 mg/kg
  increase in MAP: 20-25 mm Hg
[4]; triangulation of response-time data, Student's t=5.66, p<0.001
  MAP area scores vs saline: significant differences between the two treatment groups
Rats [5]; TRH alone 2.0 mg/kg i.v.
  pain latency, tail-flick: no effect
Rats [5]; morphine sulfate 4 mg per kg followed by TRH 2.0 mg per kg
  effect on morphine-induced analgesia, tail-flick: did not alter the intensity or duration of morphine-induced analgesia
[6]
  duration of MAP effect: about 30 minutes
[6]; n=15, first 15 minutes following injection
  MAP higher than saline-control rats: 20-25 mm Hg
[6]; Student's t=2.11, p<0.05
  MAP area scores vs saline: significantly greater
[7]; 15 minutes following treatment, n=34, r=0.43, p<0.02
  TRH dose vs improvement in MAP: significant dose-response correlation
[7]; TRH 0.20 mg/Kg IV, n=8, spread ±2.9
  pulse pressure: 24.4 mm Hg
[7]; TRH 0.20 mg/Kg IV, n=8, spread ±5.1
  change in mean arterial pressure: 21.4 mm Hg
[7]; TRH 0.20 mg/Kg IV, n=8, spread ±6.8
  respiratory rate: 107.0 breaths/min.
[7]; TRH 0.20 mg/Kg IV, n=8, spread ±16.8
  heart rate: 465.0 beats/min
[7]; TRH 0.20 mg/Kg
  survival, alive/dead: 7/1
[7]; TRH 0.63 mg/Kg IV, n=8, spread ±4.0
  respiratory rate: 109.0 breaths/min.
[7]; TRH 0.63 mg/Kg IV, n=8, spread ±5.2
  change in mean arterial pressure: 20.9 mm Hg
[7]; TRH 0.63 mg/Kg IV, n=8, spread ±5.7
  pulse pressure: 36.2 mm Hg
[7]; TRH 0.63 mg/Kg IV, n=8, spread ±22.4
  heart rate: 470.0 beats/min
[7]; TRH 0.63 mg/Kg
  survival, alive/dead: 8/0
[7]; TRH 2.00 mg/Kg IV, n=8, spread ±3.9
  pulse pressure: 33.1 mm Hg
[7]; TRH 2.00 mg/Kg IV, n=8, spread ±5.1
  change in mean arterial pressure: 24.2 mm Hg
[7]; TRH 2.00 mg/Kg IV, n=8, spread ±6.9
  respiratory rate: 125.0 breaths/min.
[7]; TRH 2.00 mg/Kg IV, n=8, spread ±24.0
  heart rate: 517.5 beats/min
[7]; TRH 2.00 mg/Kg
  survival, alive/dead: 7/1
[7]; TRH 6.34 mg/Kg IV, n=8, spread ±3.7
  change in mean arterial pressure: 35.1 mm Hg
[7]; TRH 6.34 mg/Kg IV, n=8, spread ±4.1
  pulse pressure: 37.5 mm Hg
[7]; TRH 6.34 mg/Kg IV, n=8, spread ±4.3
  respiratory rate: 147.0 breaths/min.
[7]; TRH 6.34 mg/Kg IV, n=8, spread ±21.0
  heart rate: 530.0 beats/min
[7]; TRH 6.34 mg/Kg
  survival, alive/dead: 8/0
[7]; TRH i.v., endotoxic shock
  effect on pulse pressure and heart rate: increased pulse pressure and heart rate
  effect on respiration rate: increased in a dose-related manner
[7]; all TRH-treated vs saline-control, 2 hour interval, single injection, Fisher exact probability p=0.01
  survival following endotoxic shock: significantly improved
